Data reported in ChEMBL document CHEMBL2346585, “Novel 1,3,4-oxadiazole thioether derivatives targeting thymidylate synthase as dual anticancer/antimicrobial agents” (Bioorg Med Chem, 2013).
Converted amounts (≈) assume the structure as drawn.

Experiments:
SGC-7901 = experiment: cells; settings: Homo sapiens, SGC-7901, 48 h
Description: Cytotoxicity against human SGC7901 cells after 48 hrs by MTT assay

MCF7 = experiment: cells; settings: Homo sapiens, MCF7, 48 h
Description: Cytotoxicity against human MCF7 cells after 48 hrs by MTT assay

HepG2 = experiment: cells; settings: Homo sapiens, HepG2, 48 h
Description: Cytotoxicity against human HepG2 cells after 48 hrs by MTT assay

[1] = Inhibition of Escherichia coli thymidylate synthase by spectrophotometric analysis
Staphylococcus aureus = experiment: Antibacterial activity against Staphylococcus aureus ATCC 530 assessed as growth inhibition after 24 hrs by MTT assay; assay type: functional; settings: ATCC 530, 24 h
Pseudomonas aeruginosa = experiment: Antibacterial activity against Pseudomonas aeruginosa ATCC 27853 assessed as growth inhibition after 24 hrs by MTT assay; assay type: functional; settings: ATCC 27853, 24 h
Bacillus subtilis = experiment: Antibacterial activity against Bacillus subtilis […] assessed as growth inhibition after 24 hrs by MTT assay; assay type: functional
Escherichia coli = experiment: Antibacterial activity against Escherichia coli ATCC 25922 assessed as growth inhibition after 24 hrs by MTT assay; assay type: functional; settings: ATCC 25922, 24 h

Structure (SMILES): COc1cc(OC)cc(-c2nnc(SCCn3c([N+](=O)[O-])cnc3C)o2)c1
- IC50 (SGC-7901): 9.6 µM
- IC50 (MCF7): 12.8 µM
- IC50 (HepG2): 10.5 µM

Structure (SMILES): COc1ccccc1-c1nnc(SCCn2c([N+](=O)[O-])cnc2C)o1
- IC50 (SGC-7901): 30.5 µM
- IC50 (MCF7): 10.8 µM
- IC50 (HepG2): 10 µM

Structure (SMILES): Cc1ccc(-c2nnc(SCCn3c([N+](=O)[O-])cnc3C)o2)cc1
- IC50 (SGC-7901): 12.5 µM
- IC50 (MCF7): 15.5 µM
- IC50 (HepG2): 2.2 µM
- IC50 [1]: > 10 µM

Structure (SMILES): CCOc1ccc(-c2nnc(SCCn3c([N+](=O)[O-])cnc3C)o2)cc1
- IC50 (SGC-7901): 14.1 µM
- IC50 (MCF7): 16.6 µM
- IC50 (HepG2): 1.9 µM
- IC50 [1]: 6.3 µM

Structure (SMILES): Cc1ncc([N+](=O)[O-])n1CCSc1nnc(-c2ccc(C(C)(C)C)cc2)o1
- IC50 (SGC-7901): 31.1 µM
- IC50 (MCF7): 22.1 µM
- IC50 (HepG2): 4 µM
- IC50 [1]: > 10 µM

Structure (SMILES): Cc1ncc([N+](=O)[O-])n1CCSc1nnc(-c2ccc([N+](=O)[O-])cc2)o1
- IC50 (SGC-7901): 12.2 µM
- IC50 (MCF7): 12.7 µM
- IC50 (HepG2): 4.1 µM

Structure (SMILES): Cc1ncc([N+](=O)[O-])n1CCSc1nnc(-c2cnccc2N)o1
- IC50 (SGC-7901): 34.5 µM
- MIC (Staphylococcus aureus): 25 µg/mL (≈ 72 µM)
- IC50 (MCF7): 29.3 µM
- MIC (Pseudomonas aeruginosa): 12.5 µg/mL (≈ 36 µM)
- MIC (Bacillus subtilis): 50 µg/mL (≈ 144 µM)
- MIC (Escherichia coli): 12.5 µg/mL (≈ 36 µM)
- IC50 (HepG2): 8.4 µM
- IC50 [1]: 1.8 µM

Structure (SMILES): Nc1nc2[nH]cc(CCc3ccc(C(=O)N[C@@H](CCC(=O)O)C(=O)O)cc3)c2c(=O)[nH]1 [PEMETREXED]
- IC50 [1]: 76 µM

Structure (SMILES): COc1ccc(-c2nnc(SCCn3c([N+](=O)[O-])cnc3C)o2)c(O)c1
- IC50 (SGC-7901): 11.7 µM
- IC50 (MCF7): 21.8 µM
- IC50 (HepG2): 11 µM

Structure (SMILES): NC[C@H]1O[C@H](O[C@H]2[C@H](O)[C@@H](O[C@H]3O[C@H](CO)[C@@H](O)[C@H](N)[C@H]3O)[C@H](N)C[C@@H]2N)[C@H](O)[C@@H](O)[C@@H]1O [KANAMYCIN]
- MIC (Staphylococcus aureus): 1.56 µg/mL (≈ 3.22 µM)
- MIC (Pseudomonas aeruginosa): 3.13 µg/mL (≈ 6.46 µM)
- MIC (Bacillus subtilis): 1.56 µg/mL (≈ 3.22 µM)
- MIC (Escherichia coli): 3.13 µg/mL (≈ 6.46 µM)

Structure (SMILES): CCOc1ccccc1-c1nnc(SCCn2c([N+](=O)[O-])cnc2C)o1
- IC50 (SGC-7901): 30.3 µM
- IC50 (MCF7): 25.9 µM
- IC50 (HepG2): 9.8 µM

Structure (SMILES): Cc1ncc([N+](=O)[O-])n1CCSc1nnc(-c2ccc(N(C)C)cc2)o1
- IC50 (SGC-7901): 32.8 µM
- IC50 (MCF7): 14.9 µM
- IC50 (HepG2): 11.9 µM

Structure (SMILES): Cc1ncc([N+](=O)[O-])n1CCSc1nnc(-c2ccc3c(c2)OCCO3)o1
- IC50 (SGC-7901): 9.2 µM
- IC50 (MCF7): 14.5 µM
- IC50 (HepG2): 4.1 µM
- IC50 [1]: 2.4 µM

Structure (SMILES): Cc1ncc([N+](=O)[O-])n1CCSc1nnc(-c2ccccc2N)o1
- IC50 (SGC-7901): 35.1 µM
- IC50 (MCF7): 20.1 µM
- IC50 (HepG2): 4.5 µM

Structure (SMILES): Cc1cccc(-c2nnc(SCCn3c([N+](=O)[O-])cnc3C)o2)c1O
- IC50 (SGC-7901): 35.9 µM
- IC50 (MCF7): 19.9 µM
- IC50 (HepG2): 8.7 µM

Structure (SMILES): Cc1ncc([N+](=O)[O-])n1CCSc1nnc(-c2ccnc(Cl)c2)o1
- IC50 (SGC-7901): 32.3 µM
- IC50 (MCF7): 40.5 µM
- IC50 (HepG2): 11.6 µM
- IC50 [1]: 4.1 µM

Structure (SMILES): Cc1ncc([N+](=O)[O-])n1CCSc1nnc(-c2ccc(C(C)C)cc2)o1
- IC50 (SGC-7901): 13.8 µM
- IC50 (MCF7): 20.7 µM
- IC50 (HepG2): 4.3 µM
- IC50 [1]: > 10 µM

Structure (SMILES): Cc1ccc(-c2nnc(SCCn3c([N+](=O)[O-])cnc3C)o2)c(O)c1
- IC50 (SGC-7901): 36.7 µM
- IC50 (MCF7): 23.5 µM
- IC50 (HepG2): 16.6 µM

Structure (SMILES): Cc1ncc([N+](=O)[O-])n1CCSc1nnc(-c2cccnc2)o1
- IC50 (SGC-7901): 31.6 µM
- IC50 (MCF7): 28.7 µM
- IC50 (HepG2): 9.6 µM

Structure (SMILES): Cc1ncc([N+](=O)[O-])n1CCSc1nnc(-c2ccc(F)cc2)o1
- IC50 (SGC-7901): 5.3 µM
- IC50 (MCF7): 8.1 µM
- IC50 (HepG2): 0.6 µM
- IC50 [1]: 3.9 µM

Structure (SMILES): Cc1ncc([N+](=O)[O-])n1CCSc1nnc(-c2ccco2)o1
- IC50 (SGC-7901): 31.7 µM
- IC50 (MCF7): 29.5 µM
- IC50 (HepG2): 22.6 µM

Structure (SMILES): Cc1ncc([N+](=O)[O-])n1CCSc1nnc(-c2ccccc2)o1
- IC50 (SGC-7901): 30.1 µM
- IC50 (MCF7): 20.5 µM
- IC50 (HepG2): 17.5 µM

Structure (SMILES): Cc1ncc([N+](=O)[O-])n1CCSc1nnc(-c2ccc(N)cc2)o1
- IC50 (SGC-7901): 31.7 µM
- IC50 (MCF7): 19.8 µM
- IC50 (HepG2): 6.7 µM

Structure (SMILES): Cc1ncc([N+](=O)[O-])n1CCSc1nnc(-c2ccccn2)o1
- IC50 (SGC-7901): 30 µM
- IC50 (MCF7): 39.1 µM
- IC50 (HepG2): 20.2 µM

Structure (SMILES): Cc1ncc([N+](=O)[O-])n1CCSc1nnc(-c2ccc3ccccc3c2)o1
- IC50 (SGC-7901): 30.7 µM
- IC50 (MCF7): 34.1 µM
- IC50 (HepG2): 10.1 µM

Structure (SMILES): Cc1ncc([N+](=O)[O-])n1CCSc1nnc(-c2ccnc(N)c2)o1
- IC50 (SGC-7901): 30 µM
- MIC (Staphylococcus aureus): 25 µg/mL (≈ 72 µM)
- IC50 (MCF7): 20 µM
- MIC (Pseudomonas aeruginosa): 6.25 µg/mL (≈ 18 µM)
- MIC (Bacillus subtilis): 50 µg/mL (≈ 144 µM)
- MIC (Escherichia coli): 3.13 µg/mL (≈ 9.01 µM)
- IC50 (HepG2): 0.9 µM
- IC50 [1]: 1.27 µM

Structure (SMILES): Cc1ncc([N+](=O)[O-])n1CCSc1nnc(-c2ccccc2O)o1
- IC50 (SGC-7901): 30.5 µM
- IC50 (MCF7): 28.3 µM
- IC50 (HepG2): 19.6 µM

Structure (SMILES): Cc1ncc([N+](=O)[O-])n1CCSc1nnc(-c2ccccc2[N+](=O)[O-])o1
- IC50 (SGC-7901): 30 µM
- MIC (Staphylococcus aureus): 1.56 µg/mL (≈ 4.15 µM)
- IC50 (MCF7): 18.3 µM
- MIC (Pseudomonas aeruginosa): 3.13 µg/mL (≈ 8.32 µM)
- MIC (Bacillus subtilis): 3.13 µg/mL (≈ 8.32 µM)
- MIC (Escherichia coli): 1.56 µg/mL (≈ 4.15 µM)
- IC50 (HepG2): 0.7 µM
- IC50 [1]: 0.47 µM

Structure (SMILES): Cc1ncc([N+](=O)[O-])n1CCSc1nnc(-c2ccc(N)nc2)o1
- IC50 (SGC-7901): 30.9 µM
- IC50 (MCF7): 26.8 µM
- IC50 (HepG2): 9.4 µM

Structure (SMILES): Cc1ncc([N+](=O)[O-])n1CCSc1nnc(-c2ccccc2Cl)o1
- IC50 (SGC-7901): 32.6 µM
- IC50 (MCF7): 22.5 µM
- IC50 (HepG2): 15.6 µM

Structure (SMILES): Cc1ncc([N+](=O)[O-])n1CCSc1nnc(-c2ccccc2F)o1
- IC50 (SGC-7901): 33.7 µM
- IC50 (MCF7): 20.5 µM
- IC50 (HepG2): 3.7 µM

Structure (SMILES): Cc1ncc([N+](=O)[O-])n1CCSc1nnc(-c2cccc3ccccc23)o1
- IC50 (SGC-7901): 8.8 µM
- IC50 (MCF7): 30.1 µM
- IC50 (HepG2): 10.6 µM

Structure (SMILES): COc1ccc(-c2nnc(SCCn3c([N+](=O)[O-])cnc3C)o2)cc1
- IC50 (SGC-7901): 10.2 µM
- IC50 (MCF7): 10.6 µM
- IC50 (HepG2): 5.8 µM

Structure (SMILES): O=c1[nH]cc(F)c(=O)[nH]1 [FLUOROURACIL]
- IC50 (SGC-7901): 28.9 µM
- IC50 (MCF7): 16.7 µM
- IC50 (HepG2): 22.8 µM

Structure (SMILES): Cc1ncc([N+](=O)[O-])n1CCSc1nnc(-c2cccs2)o1
- IC50 (SGC-7901): 30.8 µM
- IC50 (MCF7): 25.8 µM
- IC50 (HepG2): 20.5 µM

Structure (SMILES): Cc1ncc([N+](=O)[O-])n1CCSc1nnc(-c2ccncc2)o1
- IC50 (SGC-7901): 15.9 µM
- IC50 (MCF7): 12.6 µM
- IC50 (HepG2): 14.8 µM

Structure (SMILES): Cc1ccccc1-c1nnc(SCCn2c([N+](=O)[O-])cnc2C)o1
- IC50 (SGC-7901): 32.3 µM
- IC50 (MCF7): 15.8 µM
- IC50 (HepG2): 5.1 µM

Structure (SMILES): COc1cc(-c2nnc(SCCn3c([N+](=O)[O-])cnc3C)o2)cc(OC)c1OC
- IC50 (SGC-7901): 34.8 µM
- IC50 (MCF7): 30.6 µM
- IC50 (HepG2): 14.9 µM
- IC50 [1]: > 10 µM

Structure (SMILES): Cc1nc(=O)c2cc(CN(C)c3ccc(C(=O)N[C@@H](CCC(=O)O)C(=O)O)s3)ccc2[nH]1 [RALTITREXED]
- IC50 (SGC-7901): 8.7 µM
- MIC (Staphylococcus aureus): 50 µg/mL (≈ 109 µM)
- IC50 (MCF7): 12.6 µM
- MIC (Pseudomonas aeruginosa): 50 µg/mL (≈ 109 µM)
- MIC (Bacillus subtilis): 25 µg/mL (≈ 54.5 µM)
- MIC (Escherichia coli): 25 µg/mL (≈ 54.5 µM)
- IC50 (HepG2): 1.3 µM

Structure (SMILES): Cc1ncc([N+](=O)[O-])n1CCSc1nnc(-c2ccc(Cl)cc2)o1
- IC50 (SGC-7901): 31.9 µM
- IC50 (MCF7): 18.7 µM
- IC50 (HepG2): 7.8 µM
